# Measurements taken from patent US6863883B1, “Permanent wave agent composition having dyeing effect and method for dyeing hair using the same” (Henkel Lion Cosmetics Co. Ltd., priority 1998, dated 2005).
# Legend:
# [1] = Fastness test of dyed goat hair (surfactant solution at 80° C. for 10 minutes); set-up: key: ⊚: Deeply dyed and an original white color of the goat hair is not prominent; ◯: Dyed to a degree that an original white color of the goat hair is not prominent; Δ: Dyed, but prominent in an original white color of the goat hair; X: Only an original white color of the goat hair; conditions: 24 hours after dyeing, surfactant solution 80° C. 10 minutes
# Experimental: (§1) Thereafter, the hair which was dyed in the dyeability test was allowed to stand for 24 hours after dyeing, then immersed into 300 ml of an aqueous solution containing 0.03/sodium polyoxyethylene (2 E.O.) alkyl (12, 13) ether sulfate at 80° C. for 10 minutes. Then, the hair was adequately rinsed with warm water, dried, and fastness was evaluated by observing dyeability for the hair after the test. The evaluation was conducted based on the following criteria: • ⊚: Deeply dyed and an original white color of the goat hair is not prominent • ◯: Dyed to a degree that an original white color of the goat hair is not prominent • Δ: Dyed, but prominent in an original white color of the goat hair • X: Only an original white color of the goat hair.
# [2] = Stability with time of a second solution of a permanent waving composition containing a direct dye (storage at 45° C.); format: physicochemical; conditions: for pH (45° C.) Initial / pH (45° C.) 2 weeks / pH (45° C.) 4 weeks: 0.2% dye in second solution; for pH (45° C.) 2 weeks / pH (45° C.) 4 weeks: stored at 45° C.; for Ratio of dye that remains solubilized after 4 weeks at 45° C.: absorbance at maximum wavelength, initial value defined as 100%
# Text: Each of an acidic dye, tar-series pigment and cationic dye which are a direct dye was weighed out so as to be 0.2% by weight in terms of the active ingredient, and added to a second solution of a permanent waving composition formulated as shown in Table 1 to stir.
# As the acidic dye. […] In the tar-series pigment, HC BLUE 2 and HC YELLOW 2 (manufactured by JAMS ROBINSON Inc.) were used. And, as the […] dye, (A): (1-methyl-1-paramethoxyphenyl)-2-(1-methane-4N-methylpyridinium)hydrazine chloride, (B): 4-dimethylaminophenylazo-2N— methyl-5N-methylimidazolium chloride and (C): 4-aminophenylazo-2N-methyl-5N-methylimidazo ium chloride (manufactured by Ciba Specialty Chemicals, Inc.) were used.
# The sample was stored at 45° C., and stability of the sample with time was evaluated for solubility of the dye in the sample, pH, absorption spectra in a visible light range.
# The evaluation for solubility of the dye was conducted based on the following criteria: • ◯: No change in solubility compared to that measured two weeks before; and • X: Precipitation of the dye
# A pH was measured with a pH meter manufactured by HORIBA Inc. Limited. Moreover, the evaluation for the absorption spectra in the visible light range was conducted by measuring an absorbance at the maximum absorbance wavelength in the absorption spectra in the visible light range using HITACHI U-3210 (using a quartz cuvette having 10 mm optical path) and calculating a ratio of the dye that remains solubilized after 4 weeks by defining the initial measured solubilized value as 100%.
# [3] = Dyeability test of second solution containing a dye on goat hair; set-up: key: ⊚: Deeply dyed and an original white color of the goat hair is not prominent; ◯: Dyed to a degree that an original white color of the goat hair is not prominent; Δ: Dyed, but prominent in an original white color of the goat hair; X: Only an original white color of the goat hair; conditions: first solution 30° C. 15 minutes, then second solution with 0.2% dye
# Experimental: To approximately 2 g of goat hair, approximately 2 g of a first solution of a permanent waving composition was applied, and the hair was allowed to stand in a constant temperature bath at 30° C. for 15 minutes. Then, approximately 2 g of the same filtered second solution of a permanent waving composition as that described in Test Example 1 was applied to the hair, and the hair was shampooed and treated with a hair rinse conditioner, and adequately rinsed with water. After drying the hair, dyeability for the hair was evaluated.
# as §1
# [4] = Effect of pH of cationic dye solution on dyeability (Test Example 5); set-up: species or system goat; conditions: 0.05% aqueous solution, 30 minutes
# Text: (§2) Thereafter, each 2 g of the first solution and the second solution not containing the dye was applied to the permanently waved hair under the same condition as that described above. After the treatment with the second solution, the hair was adequately washed with water, and 2 g of a 0.05/aqueous solution of the cationic dye (B) which had been adjusted to pH 9 was applied to the hair which had been permanently waved and the untreated hair, respectively, which were allowed to stand at a treatment temperature of 30° C. for a treatment period of 30 minutes. Then, the hair was shampooed and treated with a hair rinse conditioner, adequately rinsed with water and dried, and dyeability was evaluated. Dyeability was evaluated according to a brightness of JIS standard color chart. The smaller value thereof indicates higher dyeability.
# A 0.05% aqueous solution of a cationic dye (C) was adjusted to pH 3, 5, 7, 9 or 11, and 4 g thereof was applied to approximately 2 g of goat hair. The, hair was allowed to stand in a constant temperature bath at 30° C. for 30 minutes. Then, the hair was shampooed and treated with a hair rinse conditioner, adequately washed with water and dried, and dyeability was evaluated according to the same manner as that described in Test Example 4.
# [5] = Effect of water content (propylene glycol) on dyeability (Test Example 6); set-up: species or system goat; conditions: 0.05% solution, pH 9
# Text: as §2
# 0.05% aqueous solutions of a cationic dye (C), each containing 0, 10, 20, 30, 40 and 50% propylene glycol respectively, were adjusted to pH 9.4 g of each solution was applied to approximately 2 g of goat hair, and the goat hair was allowed to stand in a constant temperature bath at 30° C. for 30 minutes. Then, the hair was shampooed and treated with a hair rinse conditioner, and adequately washed with water and dyeability was evaluated according to the same manner as that described in Test Example 4.
pH (45° C.) Initial [2],pH (45° C.) 2 weeks [2],pH (45° C.) 4 weeks [2],Ratio of dye that remains solubilized after 4 weeks at 45° C. [2] [%],"Stability with time in the second solution of the permanent waving composition ([2]; summary of Table 2, 45° C.)",SMILES,Fastness [1],Dyeability [3],"Dyeability (JIS brightness) ([4]; pH 3, 30° C.)","Dyeability (JIS brightness) ([4]; pH 5, 30° C.)","Dyeability (JIS brightness) ([4]; pH 7, 30° C.)","Dyeability (JIS brightness) ([4]; pH 9, 30° C.)","Dyeability (JIS brightness) ([4]; pH 11, 30° C.)",Dyeability (JIS brightness) ([5]; propylene glycol 0 wt %),Dyeability (JIS brightness) ([5]; propylene glycol 10 wt %),Dyeability (JIS brightness) ([5]; propylene glycol 20 wt %),Dyeability (JIS brightness) ([5]; propylene glycol 30 wt %),Dyeability (JIS brightness) ([5]; propylene glycol 40 wt %),Dyeability (JIS brightness) ([5]; propylene glycol 50 wt %)
6.43,6.44,6.15,0.00,,O=[N+]([O-])c1cc(N(CCO)CCO)ccc1NCCO [HC BLUE 2],X,◯,,,,,,,,,,,
6.43,6.42,6.44,97.6,stable with time,O=[N+]([O-])c1ccccc1NCCO [HC YELLOW 2],X,◯,,,,,,,,,,,
6.54,6.52,6.54,92.2,,Cc1ccc(Nc2ccc(O)c3c2C(=O)c2ccccc2C3=O)c(S(=O)(=O)[O-])c1.[Na+] [PURPLE 401],X,X,,,,,,,,,,,

# More lines, now with the values behind:
SMILES,pH (45° C.) Initial [2],pH (45° C.) 2 weeks [2],pH (45° C.) 4 weeks [2],Ratio of dye that remains solubilized after 4 weeks at 45° C. [2] [%],"Stability with time in the second solution of the permanent waving composition ([2]; summary of Table 2, 45° C.)",Fastness [1],Dyeability [3],"Dyeability (JIS brightness) ([4]; pH 3, 30° C.)","Dyeability (JIS brightness) ([4]; pH 5, 30° C.)","Dyeability (JIS brightness) ([4]; pH 7, 30° C.)","Dyeability (JIS brightness) ([4]; pH 9, 30° C.)","Dyeability (JIS brightness) ([4]; pH 11, 30° C.)",Dyeability (JIS brightness) ([5]; propylene glycol 0 wt %),Dyeability (JIS brightness) ([5]; propylene glycol 10 wt %),Dyeability (JIS brightness) ([5]; propylene glycol 20 wt %),Dyeability (JIS brightness) ([5]; propylene glycol 30 wt %),Dyeability (JIS brightness) ([5]; propylene glycol 40 wt %),Dyeability (JIS brightness) ([5]; propylene glycol 50 wt %)
Nc1c(N=Nc2ccc([N+](=O)[O-])cc2)c(S(=O)(=O)[O-])cc2cc(S(=O)(=O)[O-])c(N=Nc3ccccc3)c(O)c12.[Na+].[Na+] [BLACK 401],6.43,6.44,6.45,,,X,◯,,,,,,,,,,,
O=S(=O)([O-])c1ccc(N=Nc2c(O)ccc3ccccc23)cc1.[Na+] [ORANGE 205],6.44,6.43,6.45,98.7,,X,Δ,,,,,,,,,,,
"COc1ccc(N(C)N=Cc2cc[n+](C)cc2)cc1 [cationic dye (A), (1-methyl-1-paramethoxyphenyl)-2-(1-methane-4N-methylpyridinium)hydrazine chloride]",6.43,6.42,6.42,99.6,,⊚,⊚,,,,,,,,,,,
"Cn1cc[n+](C)c1N=Nc1ccc(N)cc1 [cationic dye (C), 4-aminophenylazo-2N-methyl-5N-methylimidazo ium chloride]",6.41,6.40,6.41,102.0,,⊚,⊚,6.5,6.0,5.7,5.3,5.0,6.5,6.8,7.0,7.7,8.5,9.0
